Laboratory results taken from patent US4713384A, “Selective method for blocking 5HT2 receptors” (Eli Lilly and Company, priority 1985, dated 1987).

Key:
[1] = target: T1, α1 receptors (Rattus norvegicus, UniProt P23944); test: alpha1 antagonism in rat aorta (norepinephrine); type: biochemical
T1 construct: their external jugular veins and thoracic aortas dissected free of connective tissue; from tissue; host or cells: thoracic aorta of male Wistar rats
T1 sequence (P23944 1-561): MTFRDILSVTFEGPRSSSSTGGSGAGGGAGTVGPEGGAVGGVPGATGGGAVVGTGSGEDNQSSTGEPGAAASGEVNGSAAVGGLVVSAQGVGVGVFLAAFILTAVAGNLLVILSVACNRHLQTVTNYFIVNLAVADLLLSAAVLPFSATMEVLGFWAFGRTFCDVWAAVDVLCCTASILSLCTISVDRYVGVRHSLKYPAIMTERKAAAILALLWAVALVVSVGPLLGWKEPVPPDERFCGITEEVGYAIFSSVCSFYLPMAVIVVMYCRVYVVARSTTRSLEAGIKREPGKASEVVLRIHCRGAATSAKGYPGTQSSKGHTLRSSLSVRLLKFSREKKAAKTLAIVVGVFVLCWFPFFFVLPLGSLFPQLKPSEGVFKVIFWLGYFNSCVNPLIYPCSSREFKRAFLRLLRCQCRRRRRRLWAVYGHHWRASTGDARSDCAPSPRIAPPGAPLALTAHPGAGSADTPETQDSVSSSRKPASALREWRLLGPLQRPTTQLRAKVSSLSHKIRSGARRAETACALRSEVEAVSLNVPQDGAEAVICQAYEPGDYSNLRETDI
Protocol: (§1) An initial optimum resting force of 1 and 4 g was applied to the jugular vein and aorta, respectively. […] Exp. Ther., 205, 400 (1978) and Cohen, Colbert and Wittenauer, Drug Dev. Res., 5 513 (1985) for descriptions of the procedures employed. Alpha receptor antagonist activity was evaluated in the aorta (α1) or guinea pig ileum (α2).
(§2) The -log KB values obtained for 4-hydroxycyclohexyl 1-isopropyl-9,10-dihydrolysergate, isomer mixture (racemate) and pure isomers (cis and trans referring to stereochemistry of the hydroxycyclohexyl group) plus standard error against 5HT2 receptors are given below in Table 1.
(§3) The in vitro rat aorta preparation described above was used for α1 -receptors and the guinea pig ileum for α2 -receptors. ED50 (median effective dose) for norepinephrine was determined in the presence of a 10-5 molar dose of the test compound and this ED50 compared to a control ED50.

[2] = target: T2, 5HT2 receptors (Rattus norvegicus, UniProt P14842); test: antagonism of serotonin contraction in rat external jugular vein (5HT2, apparent dissociation constant); type: biochemical, rat (male Wistar); design: their external jugular veins and thoracic aortas dissected free of connective tissue; from tissue; host or cells: external jugular vein of male Wistar rats; settings: antagonist incubated one hour, 37° C., read-out: -log KB (Log Kb ± S.E.), 5HT2 receptors (converted)
Protocol: Compounds according to formula I have an extremely high affinity for 5HT2 receptors, with a much lower affinity for alpha receptors. Ratios of relative dissociation constants for interaction with alpha to 5HT2 receptors are of the order of 200,000-300,000 indicating dramatic selectivity for 5HT2 receptors. The apparent dissociation constants (KB) are a measure of affinity for 5HT2 and alpha receptors and are expressed as the negative logarithm and are determined according to the following protocol.
as §1, §2

[3] = test system: 5HT2 receptors; test: pressor response to serotonin in pithed SHR after oral treatment; type: in vivo, spontaneously hypertensive rats (SHR); settings: for Curve Shift Relative to trans: pithed SHR
Protocol: (§4) SHR were anesthesized with halothane, femoral arterial and venous catheters were implanted as before and the trachea was cannulated. Each rat was pithed by passing a steel rod through the right orbit and down the entire length of the spinal column. The steel rod remained in place for the duration of the experiment. Immediately after pithing, the rats were ventilated with room air. An equilibration period of 15 minutes was observed prior to control measurements and administration of drugs or vehicle p.o. Increasing doses of serotonin or the alpha2 agonist clonidine were injected i.v. one or six hours after oral treatment with the […]. The response was recorded and the blood pressure allowed to recover to control levels after serotonin. Cumulative dose-response curves to clonidine were determined. The test drug solution was prepared fresh daily. Tables 5 and 6 give the results of these determinations at a dose level of 0.1 mg/kg.
^a Conscious spontaneously hypertensive rats (SHR) were treated orall
1 hour before anesthesia, pithing and determination of pressordose
response curves to multiple doses of 5HT iv (n= 4-10/group).
^b Dose of 5HT required to increase mean arterial blood pressure by 5
6 hours before anesthesia, pithing and determination of pressordose
response curves to multiple doses of 5HT iv (n = 4-10/group).

[4] = target: T3, α2 receptors (Cavia porcellus, UniProt Q60474); test: alpha2 antagonism in guinea pig ileum; type: biochemical
T3 construct: Alpha receptor antagonist activity was evaluated in the aorta (α1) or guinea pig ileum (α2); from tissue; host or cells: guinea pig ileum
T3 sequence (Q60474 1-464): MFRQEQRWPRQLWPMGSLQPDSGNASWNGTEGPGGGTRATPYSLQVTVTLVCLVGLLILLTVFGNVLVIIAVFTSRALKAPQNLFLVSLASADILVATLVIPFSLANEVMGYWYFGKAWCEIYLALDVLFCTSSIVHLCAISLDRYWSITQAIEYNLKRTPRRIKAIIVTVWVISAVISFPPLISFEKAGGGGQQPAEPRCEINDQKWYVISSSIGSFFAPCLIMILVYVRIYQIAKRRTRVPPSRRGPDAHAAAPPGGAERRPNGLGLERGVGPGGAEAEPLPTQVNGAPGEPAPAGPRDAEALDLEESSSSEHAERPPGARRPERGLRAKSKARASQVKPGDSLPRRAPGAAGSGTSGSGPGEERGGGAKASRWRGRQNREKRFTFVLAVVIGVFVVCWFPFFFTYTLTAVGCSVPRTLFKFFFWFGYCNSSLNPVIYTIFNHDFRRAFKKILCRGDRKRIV
Protocol: as §1, §2, §3

[5] = blood pressure and heart rate in spontaneously hypertensive rats; type: in vivo; settings: SHR, oral, 10 mg/kg
[6] = target: T4, Histamine (Cavia porcellus, UniProt P31389); test: histamine contraction in guinea pig trachea; type: biochemical
T4 construct: histamine or carbamyl choline (muscarinic) contraction in guinea pig trachea; from tissue; host or cells: guinea pig trachea
From the text: (§5) The compounds of this invention also lack demonstrable effects against histamine or carbamyl choline (muscarinic) contraction in guinea pig trachea, using standard procedures.

[7] = test system: alpha2 receptors; test: alpha2 antagonism (clonidine pressor response) in pithed SHR after oral treatment; type: in vivo, spontaneously hypertensive rats (SHR)
Protocol: as §4, with “Tables 5 and 6 give the results of these determinations at a dose level of 0.1 mg/kg.” left out

[8] = target: T5, Muscarinic (Cavia porcellus, UniProt H0W1Z3); test: carbamyl choline (muscarinic) contraction in guinea pig trachea; type: biochemical
T5 construct: histamine or carbamyl choline (muscarinic) contraction in guinea pig trachea; from tissue; host or cells: guinea pig trachea
From the text: as §5

[9] = target: T2, 5HT2 receptors; test: biochemical
From the text: The procedures employed are those set forth in Cohen, Colbert and Wittenauer (loc. cit.) for other tissues.

[10] = target: 5HT1 receptors; test: Rat Cortical Membrane Binding, 5HT1; settings: rat cortical membranes; read-out: Rat Cortical Membrane Binding IC50, 5HT
[11] = test system: migraine; settings: clinical trial, Lance I, Table 1; cited from earlier work
[12] = test system: vascular alpha adrenergic receptors; settings: Cohen I; cited from earlier work
[13] = test system: vascular dopaminergic receptors; settings: Cohen I; cited from earlier work
[14] = test system: vascular histaminergic receptors; settings: Cohen I; cited from earlier work
[15] = test system: receptors other than 5HT2 receptors, particularly peripheral alpha2 receptors; settings: cited from earlier work
[16] = test system: 5HT2 receptors; settings: Cohen I; cited from earlier work
[17] = test system: migraine; settings: Sulman; cited from earlier work
[18] = test system: dopaminergic; settings: literature; cited from earlier work
[19] = test system: 5HT receptor; settings: cited from earlier work; for 5HT receptor activity (agonist/antagonist) in words: literature
[20] = Berde; cited from earlier work
[21] = test system: cranial arteries; settings: with noradrenaline, migraine attack, Aellig; cited from earlier work
[22] = test system: alpha-receptors; settings: literature; cited from earlier work
[23] = literature; cited from earlier work
[24] = test system: 5HT2; settings: Awouters; cited from earlier work

T2 sequence (P14842 whole entry): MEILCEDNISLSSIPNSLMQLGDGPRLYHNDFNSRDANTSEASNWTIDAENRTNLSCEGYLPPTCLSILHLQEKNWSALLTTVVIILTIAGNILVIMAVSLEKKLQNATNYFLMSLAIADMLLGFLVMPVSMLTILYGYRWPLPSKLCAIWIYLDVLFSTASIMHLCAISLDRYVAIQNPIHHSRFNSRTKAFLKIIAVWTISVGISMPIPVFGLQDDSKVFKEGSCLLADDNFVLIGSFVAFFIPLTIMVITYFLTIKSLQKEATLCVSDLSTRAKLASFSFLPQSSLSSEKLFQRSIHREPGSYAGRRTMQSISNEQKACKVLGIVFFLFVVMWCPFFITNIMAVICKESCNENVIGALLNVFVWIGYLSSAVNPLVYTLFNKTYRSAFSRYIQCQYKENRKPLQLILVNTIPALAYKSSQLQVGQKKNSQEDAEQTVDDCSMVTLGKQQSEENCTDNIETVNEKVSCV
T4 sequence (P31389 whole entry): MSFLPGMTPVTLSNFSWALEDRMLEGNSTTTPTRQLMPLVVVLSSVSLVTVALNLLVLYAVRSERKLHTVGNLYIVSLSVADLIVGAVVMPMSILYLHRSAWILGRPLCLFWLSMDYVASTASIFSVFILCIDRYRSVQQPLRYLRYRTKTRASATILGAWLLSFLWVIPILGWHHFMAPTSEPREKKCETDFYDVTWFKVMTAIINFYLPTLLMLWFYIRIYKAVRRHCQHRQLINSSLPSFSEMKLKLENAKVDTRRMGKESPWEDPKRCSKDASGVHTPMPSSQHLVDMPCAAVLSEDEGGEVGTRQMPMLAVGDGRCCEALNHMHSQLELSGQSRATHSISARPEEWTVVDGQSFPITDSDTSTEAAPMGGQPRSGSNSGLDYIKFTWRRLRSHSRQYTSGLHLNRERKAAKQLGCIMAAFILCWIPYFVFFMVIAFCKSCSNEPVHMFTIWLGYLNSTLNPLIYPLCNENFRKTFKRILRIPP
T5 sequence (H0W1Z3 1-590): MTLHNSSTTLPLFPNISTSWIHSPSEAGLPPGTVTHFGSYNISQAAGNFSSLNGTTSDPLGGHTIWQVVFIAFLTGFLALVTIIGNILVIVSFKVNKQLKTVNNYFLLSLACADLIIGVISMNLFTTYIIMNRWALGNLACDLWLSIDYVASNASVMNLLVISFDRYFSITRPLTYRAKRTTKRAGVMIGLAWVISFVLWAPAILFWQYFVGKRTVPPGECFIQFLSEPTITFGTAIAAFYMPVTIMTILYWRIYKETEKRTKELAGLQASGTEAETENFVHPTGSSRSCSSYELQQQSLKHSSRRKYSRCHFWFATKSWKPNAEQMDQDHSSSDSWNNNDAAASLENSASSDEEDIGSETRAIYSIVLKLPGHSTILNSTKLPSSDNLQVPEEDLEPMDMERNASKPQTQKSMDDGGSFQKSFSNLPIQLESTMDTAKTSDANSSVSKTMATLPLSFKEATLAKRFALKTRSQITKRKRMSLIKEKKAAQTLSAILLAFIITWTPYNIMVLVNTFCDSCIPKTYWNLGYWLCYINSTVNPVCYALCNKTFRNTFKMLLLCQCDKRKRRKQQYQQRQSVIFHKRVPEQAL

Q: For `CC(C)n1cc2c3c(cccc31)[C@H]1C[C@@H](C(=O)O[C@H]3CC[C@@H](O)CC3)CN(C)[C@@H]1C2` (mixture of isomers) [cis, cis-(±)-4-hydroxycyclohexyl 1-isopropyl-9,10-dihydrolysergate], which Kb [1] is on record?
A: 4470 nM

Q: What about the Kb [2] of the same molecule?
A: 0.112 nM

Q: And the curve shift ([3]; 0.3 mg/kg po)?
A: 6.7

Q: And the “dose of 5HT required to increase mean arterial BP by 50 mmHg” value ([3]; 0.3 mg/kg po)?
A: 1800

Q: And the “Curve Shift Relative to trans” value ([3]; one hour after oral 0.1 mg/kg)?
A: 11.6

Q: What about the “Curve Shift Relative to trans” value ([3]; six hours after oral 0.1 mg/kg) of the same molecule?
A: 24.3

Q: What about the Kb [4] of the same molecule?
A: 155 nM

Q: With `CC(C)n1cc2c3c(cccc31)[C@H]1C[C@@H](C(=O)OC3CCC(O)CC3)CN(C)[C@@H]1C2` (mixture of isomers) [mixture, 4-hydroxycyclohexyl 1-isopropyl-9,10-dihydrolysergate] as the molecule, how does the Kb [1] read?
A: 14500 nM

Q: What about the Kb [2] of the same molecule?
A: 0.0661 nM

Q: And the “effect on blood pressure or heart rate” value [5]?
A: no effect on blood pressure or heart rate

Q: And the Kb [6]?
A: > 10000 nM

Q: And the “alpha2 antagonist activity in pithed rats” value ([7]; 100 mg/kg dose level po)?
A: slight

Q: What about the “specificity (5HT2 vs alpha2) in vivo compared with in vitro” value ([7]; pithed rats, po) of the same molecule?
A: greater specificity

Q: And the Kb [8]?
A: > 10000 nM

Q: What about the IC50 [9] of the same molecule?
A: 3 nM

Q: And the “Curve Shift Relative to trans” value ([3]; one hour after oral 0.1 mg/kg)?
A: 3.6

Q: And the “Curve Shift Relative to trans” value ([3]; six hours after oral 0.1 mg/kg)?
A: 5.5

Q: And the IC50 [10]?
A: 530 nM

Q: What about the Kb [4] of the same molecule?
A: 117 nM

Q: Which “Improvement rate in migraine” value [11] does the source give for `CN1CCC(=C2c3ccccc3CCc3sccc32)CC1` [BC105] here?
A: 50%

Q: Which results are given for `CC(O)C(C)OC(=O)[C@@H]1C[C@@H]2c3cccc4c3c(cn4C(C)C)C[C@H]2N(C)C1` (stereo partly drawn) [LY53857, 1-isopropyl-6-methyl-8β-(1-methyl-2-hydroxy)propoxycarbonyl-5R-ergoline]?
A: affinity, vascular alpha adrenergic receptors [12]: minimal affinity; affinity, vascular dopaminergic receptors [13]: minimal affinity; affinity, vascular histaminergic receptors [14]: minimal affinity; effect on receptors other than 5HT2 [15]: lack of effect; antagonism of vascular contraction to serotonin [16]: potent antagonist

Q: For `CN1CCC(=C2c3ccccc3C=Cc3ccccc32)CC1` [cyproheptadine], which “Improvement rate in migraine” value [11] is on record?
A: 43%

Q: With `CN1CCC(=C2c3ccccc3C(O)c3ccccc32)CC1` (stereo not shown) [danitracene] as the molecule, how does the pharmacological effects [17] read?
A: antiserotonin, antihistamine and antidepressive affects

Q: Which “dopaminergic activity in words” value [18] does the source give for `C[C@@H](CO)NC(=O)[C@@H]1C=C2c3cccc4[nH]cc(c34)C[C@H]2N(C)C1` [ergonovine] here?
A: weak dopaminergic antagonist

Q: And the “5HT receptor activity (agonist/antagonist) in words” value [19]?
A: 5HT agonist and selective and fairly potent 5HT antagonist in smooth muscle and highly active 5HT antagonist in the uterus

Q: Which results are given for `CN1C[C@H](C(=O)N[C@]2(C)O[C@@]3(O)[C@@H]4CCCN4C(=O)[C@H](Cc4ccccc4)N3C2=O)C=C2c3cccc4[nH]cc(c34)C[C@H]21` [ergotamine]?
A: pressor and emetic activity [20]: most active compound only in pressor and emetic activity; constriction of cranial arteries [21]: act together to constrict cranial arteries; 5HT receptor activity (agonist/antagonist) in words [19]: 5HT agonists at low concentrations but antagonistic at higher concentrations; alpha receptor activity in words [22]: both a partial alpha-agonist and an alpha-antagonist

Q: With `CCN(CC)C(=O)N[C@H]1C=C2c3cccc4[nH]cc(c34)C[C@H]2N(C)C1` [lysenyl, N-D-6-methylisoergolenyldiethylcarbamide] as the molecule, how does the “Improvement rate in migraine” value [11] read?
A: 34%

Q: Which “Improvement rate in migraine” value [11] does the source give for `CN1CCC(CN2c3ccccc3Sc3ccccc32)C1` (stereo not shown) [methdilazine] here?
A: 45%

Q: Which “Improvement rate in migraine” value [11] does the source give for `CC[C@@H](CO)NC(=O)[C@@H]1C=C2c3cccc4c3c(cn4C)C[C@H]2N(C)C1` [methysergide] here?
A: 64%

Q: And the oxytocic action [23]?
A: no oxytocic action

Q: And the “5HT receptor blockade rating” value ([19]; Berde, most active compound = 1,000)?
A: 1,000

Q: And the “5HT receptor activity (agonist/antagonist) in words” value [19]?
A: 5HT agonists at low concentrations but antagonistic at higher concentrations and partial 5HT agonist in certain blood vessels and very potent 5HT antagonist in the CNS

Q: And the “5HT2 agonist activity and side effects” value [24]?
A: responsible for some of the side effects

Q: What about the “alpha receptor activity in words” value [22] of the same molecule?
A: little or no action on alpha-receptors

Q: For `CC(C)n1cc2c3c(cccc31)[C@H]1C[C@@H](C(=O)O[C@H]3CC[C@H](O)CC3)CN(C)[C@@H]1C2` [trans, trans-4-hydroxycyclohexyl 1-isopropyl-9,10-dihydrolysergate], which Kb [1] is on record?
A: 1950 nM

Q: And the Kb [2]?
A: 0.0955 nM

Q: What about the Kb [6] of the same molecule?
A: > 10000 nM

Q: And the Kb [8]?
A: > 10000 nM

Q: What about the IC50 [9] of the same molecule?
A: 0.7 nM

Q: What about the “potency of trans isomer relative to cis isomer” value ([3]; by extrapolation, po) of the same molecule?
A: 3 X

Q: And the IC50 [10]?
A: 390 nM

Q: And the Kb [4]?
A: 66.1 nM
